From ChEMBL document CHEMBL3045903, “Computational evaluation and experimental verification of antibacterial activity of some -lactams: advantages and limitations” (2013)

Tests used:
Format in all cases: functional
Staphylococcus = assay: Antibacterial activity against Staphylococcus citrus by disc diffusion method
Escherichia coli = assay: Antibacterial activity against Escherichia coli by disk diffusion method
Klebsiella pneumoniae = assay: Antibacterial activity against Klebsiella pneumoniae by disk diffusion method
Bacillus subtilis = assay: Antibacterial activity against Bacillus subtilis by disk diffusion method

| SMILES | inhibition zone (IZ) (Staphylococcus) [mm] | inhibition zone (IZ) (Escherichia coli) [mm] | inhibition zone (IZ) (Klebsiella pneumoniae) [mm] | inhibition zone (IZ) (Bacillus subtilis) [mm] |
| --- | --- | --- | --- | --- |
| CCOC(=O)C1C(c2ccccc2)CC2C(NC(=O)/C=C/c3ccccc3)C(=O)N21 (stereo not drawn) | <6 | <6 | <6 | <6 |
| CCOC(=O)C1C(c2ccccc2)CC2C(NC(=O)COc3ccccc3)C(=O)N21 (stereo not drawn) | <6 | <6 | <6 | <6 |
| CCOC(=O)C1C(c2ccccc2)CC2C(NC(=O)Cc3ccccc3)C(=O)N21 (stereo not drawn) | <6 | <6 | <6 | <6 |
| CCOC(=O)C1C(c2ccccc2)CC2C(NC(=O)c3ccccc3)C(=O)N21 (stereo not drawn) | <6 | <6 | <6 | <6 |
| CCOC(=O)C(Cc1ccccc1)N1C(=O)C(NC(=O)/C=C/c2ccccc2)C1/C=C/c1ccccc1 (stereo not drawn) | <6 | <6 | <6 | <6 |
| CCOC(=O)C(Cc1ccccc1)N1C(=O)C(NC(=O)COc2ccccc2)C1/C=C/c1ccccc1 (stereo not drawn) | 9 | <6 | <6 | >12 |
| CCOC(=O)C(Cc1ccccc1)N1C(=O)C(NC(=O)Cc2ccccc2)C1/C=C/c1ccccc1 (stereo not drawn) | 9 | <6 | <6 | >12 |
| CCOC(=O)C(Cc1ccccc1)N1C(=O)C(NC(=O)c2ccccc2)C1/C=C/c1ccccc1 (stereo not drawn) | <6 | <6 | <6 | <6 |
| CCOC(=O)C1C(c2ccccc2)CC2C(NN3C(=O)c4ccccc4C3=O)C(=O)N21 (stereo not drawn) | <6 | <6 | <6 | <6 |
| CCOC(=O)C(Cc1ccccc1)N1C(=O)C(NN2C(=O)c3ccccc3C2=O)C1CO (stereo not drawn) | <6 | <6 | <6 | <6 |
| CCOC(=O)C(Cc1ccccc1)N1C(=O)C(NN2C(=O)c3ccccc3C2=O)C1C=O (stereo not drawn) | <6 | <6 | <6 | <6 |
| CCOC(=O)C(Cc1ccccc1)N1C(=O)C(NN2C(=O)c3ccccc3C2=O)C1/C=C/c1ccccc1 (stereo not drawn) | 9 | <6 | <6 | >12 |
